Earlier results, collected in US9783526B2, “Control of hypoxia-inducible gene expression with oligooxopiperazine nonpeptidic helix mimetics” (New York University, priority 2012, dated 2017).

Tests used:
experimental animals = conditions: in vivo
[1] = system: HIF-1α C-TAD and p300/CBP

SMILES: CN1C(=O)[C@@]23C[C@]4([C@]56C[C@@]78SS[C@@](CO)(C(=O)N7[C@H]5Nc5ccccc56)N(C)C8=O)c5ccccc5N[C@@H]4N2C(=O)[C@]1(CO)SS3 [chaetocin]
- adverse effects in experimental animals (experimental animals): induced coagulative necrosis, anemia, and leukocytosis

SMILES: CN1C(=O)[C@]2(Cc3cn([C@]45C[C@@]67SS[C@@](CO)(C(=O)N6[C@H]4Nc4ccccc45)N(C)C7=O)c4ccccc34)SS[C@@]1(CO)C(=O)N2C [chetomin]
- inhibition of the interaction between HIF-1α C-TAD and p300/CBP [1]: inhibit the interaction
- adverse effects in experimental animals (experimental animals): induced coagulative necrosis, anemia, and leukocytosis
